From patent US7074789B2, “Kinase inhibitors” (Amgen Inc., priority 1999, dated 2006)

Experiments:
Format in all cases: biochemical
Lck = molecular target: T1, Lck (Homo sapiens, UniProt P06239); test: Kinase inhibition assay (33P transfer), Lck; settings: read-out: Lck-1
T1 construct: Kinases are expressed as either kinase domains or full length constructs; made in house
Method in brief: (§1)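 Radiometric readout: 33P incorporated into surface-bound poly(Glu,Tyr) 4:1 or poly(Arg,Ser) 3:1 is counted by liquid scintillation after a 0.5% phosphoric acid wash. Enzymes were GST or polyHis fusions (kinase domain or full length) from E. coli or High Five insect cells.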

Zap-70 = molecular target: T2, Zap-70 (Homo sapiens, UniProt P43403); test: Kinase inhibition assay (33P transfer), Zap-70; settings: read-out: Zap-1
T2 construct: Kinases are expressed as either kinase domains or full length constructs; made in house
T2 sequence (P43403 1-619): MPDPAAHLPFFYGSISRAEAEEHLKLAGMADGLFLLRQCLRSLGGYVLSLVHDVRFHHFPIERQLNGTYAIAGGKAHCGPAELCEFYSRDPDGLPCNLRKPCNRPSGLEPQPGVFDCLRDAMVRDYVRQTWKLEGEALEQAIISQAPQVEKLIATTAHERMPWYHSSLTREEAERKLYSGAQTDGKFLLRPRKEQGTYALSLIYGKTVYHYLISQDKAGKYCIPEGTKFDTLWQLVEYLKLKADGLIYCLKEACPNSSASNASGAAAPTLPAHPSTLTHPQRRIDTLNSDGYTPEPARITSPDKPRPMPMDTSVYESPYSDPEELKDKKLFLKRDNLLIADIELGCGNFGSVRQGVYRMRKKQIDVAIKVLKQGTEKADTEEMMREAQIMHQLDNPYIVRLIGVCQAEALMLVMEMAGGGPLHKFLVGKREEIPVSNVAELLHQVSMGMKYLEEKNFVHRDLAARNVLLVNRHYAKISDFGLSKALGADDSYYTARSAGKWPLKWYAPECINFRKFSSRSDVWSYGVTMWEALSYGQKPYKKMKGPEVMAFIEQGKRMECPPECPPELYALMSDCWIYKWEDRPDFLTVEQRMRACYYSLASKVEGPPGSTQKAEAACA
Method in brief: as §1

Itk = molecular target: T3, Itk (Homo sapiens, UniProt Q08881); test: Kinase inhibition assay (33P transfer), Itk; settings: read-out: Itk-1
T3 construct: Kinases are expressed as either kinase domains or full length constructs; made in house
T3 sequence (Q08881 1-620): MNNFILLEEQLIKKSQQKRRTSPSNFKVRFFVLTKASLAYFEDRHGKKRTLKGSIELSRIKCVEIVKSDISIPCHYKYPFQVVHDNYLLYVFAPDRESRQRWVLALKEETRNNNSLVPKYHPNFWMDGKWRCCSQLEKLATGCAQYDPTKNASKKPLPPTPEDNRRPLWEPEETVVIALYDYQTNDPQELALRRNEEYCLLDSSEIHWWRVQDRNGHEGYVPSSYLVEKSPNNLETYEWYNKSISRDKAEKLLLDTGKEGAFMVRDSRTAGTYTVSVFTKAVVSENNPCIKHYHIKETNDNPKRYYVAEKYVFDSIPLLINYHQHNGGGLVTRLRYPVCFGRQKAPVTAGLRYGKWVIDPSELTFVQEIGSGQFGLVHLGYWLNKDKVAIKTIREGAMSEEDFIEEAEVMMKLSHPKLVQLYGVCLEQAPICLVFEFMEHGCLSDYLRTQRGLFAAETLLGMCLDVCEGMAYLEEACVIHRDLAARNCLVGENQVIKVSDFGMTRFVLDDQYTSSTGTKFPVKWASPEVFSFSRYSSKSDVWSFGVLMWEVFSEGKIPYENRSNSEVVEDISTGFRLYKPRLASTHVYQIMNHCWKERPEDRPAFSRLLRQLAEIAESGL
Method in brief: (§2)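 Each enzyme, purified to near homogeneity by affinity chromatography, was incubated with ATP carrying 33P and a substrate polymer fixed to the plate. Unbound label was removed with dilute phosphoric acid (0.5%) before adding scintillant and counting. Potency is given as the compound level cutting label uptake by 50%.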

EGFR = molecular target: T4, EGFR (Homo sapiens, UniProt P00533); test: Kinase inhibition assay (33P transfer), EGFR; settings: Table 2, kinase inhibition class; read-out: EGFR-1
T4 construct: Kinases are expressed as either kinase domains or full length constructs; made in house
Method in brief: as §2

ErbB2 = molecular target: T5, ErbB2 (Homo sapiens, UniProt P04626); test: Kinase inhibition assay (33P transfer), ErbB2; settings: read-out: ErbB2-2
T5 construct: Kinases are expressed as either kinase domains or full length constructs; made in house
Excerpt: The inhibitor compounds described herein are screened in the following manner. Kinases suitable for use in the following protocol to determine kinase activity of the compounds described herein include, -but are not limited to: Lck, Lyn, Src, Fyn, Syk, Zap-70, Itk, Tec, Btk, EGFR, ErbB2, Kdr, Flt-1, Flt-3, Tek, c-Met, InsR, and AKT.
Kinases are expressed as either kinase domains or full length constructs fused to glutathione S-transferase (GST) or polyHistidine tagged fusion proteins in either E. colior Baculovirus-High Five expression systems. They are purified to near homogeneity by affinity chromatography essentially as previously described (Lehr et al., 1996; Gish et al., 1995). In some instances, kinases are co-expressed or mixed with purified or partially purified regulatory polypeptides prior to measurement of activity.
Kinase activity and inhibition are measured essentially by established protocols (Braunwalder et al., 1996). Briefly, The transfer of ^33PO4 from ATP to the synthetic substrates poly(Glu, Tyr) 4:1 or poly(Arg, Ser) 3:1 attached to the bioactive surface of microtiter plates serves as the basis to evaluate enzyme activity. After an incubation period, the amount of phosphate transferred is measured by first washing the plate with 0.5% phosphoric acid, adding liquid scintillant, and then counting in a liquid scintillation detector. The IC50 is determined by the concentration of compound that causes a 50% reduction in the amount of […] incorporated onto the substrate bound to the plate.

Kdr = molecular target: T6, Kdr (Homo sapiens, UniProt P35968); test: Kinase inhibition assay (33P transfer), Kdr; settings: read-out: KDR-1
T6 construct: Kinases are expressed as either kinase domains or full length constructs; made in house
Method in brief: as §1

c-Met = molecular target: T7, c-Met (Homo sapiens, UniProt P08581); test: Kinase inhibition assay (33P transfer), c-Met; settings: Table 2, kinase inhibition class; read-out: Met-1
T7 construct: Kinases are expressed as either kinase domains or full length constructs; made in house
Method in brief: as §2

AKT = molecular target: T8, AKT (Homo sapiens, UniProt Q9Y243); test: Kinase inhibition assay (33P transfer), AKT; settings: Table 2, kinase inhibition class; read-out: AKT3-1
T8 construct: Kinases are expressed as either kinase domains or full length constructs; made in house
Method in brief: as §1

IGFR-1 = molecular target: T9, IGFR-1 (Homo sapiens, UniProt P08069); test: Kinase inhibition assay, IGFR-1 (Table 2); settings: Table 2, kinase inhibition class
T9 construct: Kinases are expressed as either kinase domains or full length constructs; made in house

PDGFRB = molecular target: T10, PDGFRB (Homo sapiens, UniProt P09619); test: Kinase inhibition assay (33P transfer), PDGFRB; settings: read-out: PDGFRB-1
T10 construct: Kinases are expressed as either kinase domains or full length constructs; made in house

Tek = molecular target: T11, Tek (Homo sapiens, UniProt Q02763); test: Kinase inhibition assay (33P transfer), Tek; settings: read-out: Tek-1
T11 construct: Kinases are expressed as either kinase domains or full length constructs; made in house
Method in brief: as §2

T9 sequence (P08069 31-1367): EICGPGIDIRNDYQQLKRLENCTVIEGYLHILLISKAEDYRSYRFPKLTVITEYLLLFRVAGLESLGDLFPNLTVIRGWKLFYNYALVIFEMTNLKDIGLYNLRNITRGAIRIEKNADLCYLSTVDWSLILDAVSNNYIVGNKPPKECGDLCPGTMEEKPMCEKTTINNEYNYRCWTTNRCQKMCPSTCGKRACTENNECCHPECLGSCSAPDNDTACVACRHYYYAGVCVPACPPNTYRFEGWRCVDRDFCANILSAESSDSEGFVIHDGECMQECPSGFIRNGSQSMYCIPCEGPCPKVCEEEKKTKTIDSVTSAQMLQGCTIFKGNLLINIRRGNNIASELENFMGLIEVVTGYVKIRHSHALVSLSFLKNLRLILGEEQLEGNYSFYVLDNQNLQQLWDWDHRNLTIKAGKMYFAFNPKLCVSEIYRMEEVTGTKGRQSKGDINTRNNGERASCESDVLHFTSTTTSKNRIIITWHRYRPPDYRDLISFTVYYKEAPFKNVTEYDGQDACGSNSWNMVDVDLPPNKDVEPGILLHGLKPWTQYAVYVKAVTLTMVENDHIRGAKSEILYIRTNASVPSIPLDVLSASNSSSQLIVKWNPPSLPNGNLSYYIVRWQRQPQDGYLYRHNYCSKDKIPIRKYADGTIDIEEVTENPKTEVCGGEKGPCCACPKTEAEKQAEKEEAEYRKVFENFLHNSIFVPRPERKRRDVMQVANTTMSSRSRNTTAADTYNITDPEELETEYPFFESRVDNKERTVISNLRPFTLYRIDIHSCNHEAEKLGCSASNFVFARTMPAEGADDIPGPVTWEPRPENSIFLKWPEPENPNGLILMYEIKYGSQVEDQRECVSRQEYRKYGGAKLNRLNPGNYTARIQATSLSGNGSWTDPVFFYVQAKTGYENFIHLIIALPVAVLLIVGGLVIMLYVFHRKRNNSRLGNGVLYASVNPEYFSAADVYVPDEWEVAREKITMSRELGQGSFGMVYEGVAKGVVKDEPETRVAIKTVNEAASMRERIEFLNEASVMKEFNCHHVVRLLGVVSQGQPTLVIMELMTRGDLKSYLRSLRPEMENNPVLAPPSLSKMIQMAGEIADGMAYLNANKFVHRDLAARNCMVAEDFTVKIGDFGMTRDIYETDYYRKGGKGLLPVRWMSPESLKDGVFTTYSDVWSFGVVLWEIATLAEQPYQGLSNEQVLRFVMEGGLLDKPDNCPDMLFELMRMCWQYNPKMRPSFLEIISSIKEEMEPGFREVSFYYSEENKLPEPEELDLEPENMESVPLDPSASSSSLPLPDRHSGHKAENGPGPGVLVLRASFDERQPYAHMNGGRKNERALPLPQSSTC
T4 sequence (P00533 25-1210, species assumed): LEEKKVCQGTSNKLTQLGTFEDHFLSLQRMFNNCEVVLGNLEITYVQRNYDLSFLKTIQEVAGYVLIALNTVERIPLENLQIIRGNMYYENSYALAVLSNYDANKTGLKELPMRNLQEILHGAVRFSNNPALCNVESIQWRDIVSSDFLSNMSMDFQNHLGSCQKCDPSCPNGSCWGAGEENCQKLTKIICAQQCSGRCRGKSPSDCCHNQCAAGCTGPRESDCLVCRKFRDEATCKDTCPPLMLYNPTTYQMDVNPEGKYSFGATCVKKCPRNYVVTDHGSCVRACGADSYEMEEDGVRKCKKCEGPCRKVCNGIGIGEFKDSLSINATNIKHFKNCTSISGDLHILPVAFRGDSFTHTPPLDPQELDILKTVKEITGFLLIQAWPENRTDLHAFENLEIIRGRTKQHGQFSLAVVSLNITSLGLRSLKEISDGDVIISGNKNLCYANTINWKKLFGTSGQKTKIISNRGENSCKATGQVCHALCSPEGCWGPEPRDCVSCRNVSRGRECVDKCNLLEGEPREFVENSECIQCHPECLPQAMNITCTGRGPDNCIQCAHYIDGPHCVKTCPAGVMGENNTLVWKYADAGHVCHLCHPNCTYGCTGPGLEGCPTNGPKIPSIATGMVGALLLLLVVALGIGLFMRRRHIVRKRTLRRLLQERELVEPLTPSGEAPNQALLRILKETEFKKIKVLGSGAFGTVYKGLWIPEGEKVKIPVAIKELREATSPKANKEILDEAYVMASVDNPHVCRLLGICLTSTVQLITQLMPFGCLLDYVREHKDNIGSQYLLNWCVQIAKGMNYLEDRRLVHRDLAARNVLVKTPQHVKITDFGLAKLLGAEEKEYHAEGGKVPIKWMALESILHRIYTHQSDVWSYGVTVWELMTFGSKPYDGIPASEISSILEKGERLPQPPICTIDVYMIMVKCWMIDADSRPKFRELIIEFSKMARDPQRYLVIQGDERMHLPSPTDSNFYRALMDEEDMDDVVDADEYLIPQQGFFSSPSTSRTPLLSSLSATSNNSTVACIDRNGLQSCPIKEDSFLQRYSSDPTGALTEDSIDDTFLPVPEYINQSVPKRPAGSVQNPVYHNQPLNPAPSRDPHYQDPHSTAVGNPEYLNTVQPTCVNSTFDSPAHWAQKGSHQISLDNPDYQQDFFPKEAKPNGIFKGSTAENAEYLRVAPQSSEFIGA
T5 sequence (P04626 23-1255, species assumed): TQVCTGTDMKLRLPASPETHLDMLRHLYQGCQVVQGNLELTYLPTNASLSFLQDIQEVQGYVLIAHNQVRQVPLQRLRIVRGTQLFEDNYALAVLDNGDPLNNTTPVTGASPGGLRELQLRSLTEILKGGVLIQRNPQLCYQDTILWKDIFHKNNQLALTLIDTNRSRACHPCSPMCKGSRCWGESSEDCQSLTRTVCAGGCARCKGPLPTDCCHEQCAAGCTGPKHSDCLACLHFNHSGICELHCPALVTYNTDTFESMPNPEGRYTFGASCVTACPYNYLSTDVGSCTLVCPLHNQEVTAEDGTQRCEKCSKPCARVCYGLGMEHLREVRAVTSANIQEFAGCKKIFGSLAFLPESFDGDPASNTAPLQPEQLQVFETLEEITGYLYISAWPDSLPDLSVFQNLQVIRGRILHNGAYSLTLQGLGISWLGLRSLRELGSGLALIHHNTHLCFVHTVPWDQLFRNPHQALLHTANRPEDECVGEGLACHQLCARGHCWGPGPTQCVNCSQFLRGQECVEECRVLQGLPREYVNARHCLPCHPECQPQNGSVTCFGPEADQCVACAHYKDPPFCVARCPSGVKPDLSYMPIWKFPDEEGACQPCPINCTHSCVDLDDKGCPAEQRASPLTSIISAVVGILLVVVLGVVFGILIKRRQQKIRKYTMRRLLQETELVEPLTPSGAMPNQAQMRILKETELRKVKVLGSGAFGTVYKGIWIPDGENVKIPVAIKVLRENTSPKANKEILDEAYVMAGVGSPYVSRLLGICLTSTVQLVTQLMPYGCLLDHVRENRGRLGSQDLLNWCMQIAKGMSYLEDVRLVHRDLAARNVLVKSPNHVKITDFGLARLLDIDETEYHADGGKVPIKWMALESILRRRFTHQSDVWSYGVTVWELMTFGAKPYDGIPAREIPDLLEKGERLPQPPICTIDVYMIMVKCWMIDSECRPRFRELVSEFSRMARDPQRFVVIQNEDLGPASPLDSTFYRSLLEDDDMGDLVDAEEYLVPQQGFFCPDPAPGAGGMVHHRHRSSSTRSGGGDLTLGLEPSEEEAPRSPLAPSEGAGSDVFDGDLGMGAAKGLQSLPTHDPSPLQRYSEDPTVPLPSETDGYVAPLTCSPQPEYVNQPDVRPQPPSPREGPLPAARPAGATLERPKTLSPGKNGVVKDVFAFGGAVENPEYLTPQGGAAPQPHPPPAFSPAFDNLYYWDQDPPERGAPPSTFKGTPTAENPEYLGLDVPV
T7 sequence (P08581 25-1390): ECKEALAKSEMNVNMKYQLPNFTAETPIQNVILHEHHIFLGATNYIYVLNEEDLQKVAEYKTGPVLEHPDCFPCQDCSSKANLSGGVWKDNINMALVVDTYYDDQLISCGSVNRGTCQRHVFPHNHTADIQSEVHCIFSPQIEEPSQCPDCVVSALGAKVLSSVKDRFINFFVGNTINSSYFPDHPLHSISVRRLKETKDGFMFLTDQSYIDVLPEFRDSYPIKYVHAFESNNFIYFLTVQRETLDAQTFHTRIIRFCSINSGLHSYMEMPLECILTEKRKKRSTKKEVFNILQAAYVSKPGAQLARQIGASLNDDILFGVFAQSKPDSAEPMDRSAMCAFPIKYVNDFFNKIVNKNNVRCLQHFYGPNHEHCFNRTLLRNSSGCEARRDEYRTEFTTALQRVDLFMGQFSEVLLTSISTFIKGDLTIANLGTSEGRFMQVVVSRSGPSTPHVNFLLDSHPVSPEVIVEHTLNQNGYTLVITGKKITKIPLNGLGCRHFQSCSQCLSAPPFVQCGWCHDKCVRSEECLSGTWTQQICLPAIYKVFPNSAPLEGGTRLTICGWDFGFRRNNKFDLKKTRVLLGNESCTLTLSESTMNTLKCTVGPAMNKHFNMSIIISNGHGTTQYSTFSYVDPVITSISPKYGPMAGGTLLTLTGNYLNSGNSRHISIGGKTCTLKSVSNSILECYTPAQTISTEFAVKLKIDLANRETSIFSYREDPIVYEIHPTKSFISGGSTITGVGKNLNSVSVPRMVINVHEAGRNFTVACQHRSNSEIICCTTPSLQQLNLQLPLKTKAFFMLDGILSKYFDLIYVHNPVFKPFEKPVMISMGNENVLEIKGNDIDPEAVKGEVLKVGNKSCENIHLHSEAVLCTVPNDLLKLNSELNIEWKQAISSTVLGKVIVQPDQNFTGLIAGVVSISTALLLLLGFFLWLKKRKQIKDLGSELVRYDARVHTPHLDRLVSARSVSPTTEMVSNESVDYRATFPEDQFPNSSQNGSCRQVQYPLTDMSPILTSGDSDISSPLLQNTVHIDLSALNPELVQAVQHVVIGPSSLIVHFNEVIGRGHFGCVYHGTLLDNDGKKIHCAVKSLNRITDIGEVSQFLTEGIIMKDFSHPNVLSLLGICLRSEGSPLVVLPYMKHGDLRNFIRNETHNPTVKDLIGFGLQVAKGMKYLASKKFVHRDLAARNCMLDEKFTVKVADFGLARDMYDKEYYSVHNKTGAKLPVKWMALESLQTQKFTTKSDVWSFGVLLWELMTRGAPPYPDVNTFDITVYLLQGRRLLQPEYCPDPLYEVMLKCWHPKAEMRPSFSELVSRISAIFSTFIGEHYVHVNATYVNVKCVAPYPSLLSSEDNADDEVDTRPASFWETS

| Structure (SMILES) | IC50 (Lck) [µM] | IC50 (Zap-70) [µM] | IC50 (Itk) [µM] | IC50 (EGFR) [µM] | IC50 (ErbB2) [µM] | IC50 (Kdr) [µM] | IC50 (c-Met) [µM] | IC50 (AKT) [µM] | IC50 (IGFR-1) [µM] | IC50 (PDGFRB) [µM] | IC50 (Tek) [µM] |
| --- | --- | --- | --- | --- | --- | --- | --- | --- | --- | --- | --- |
| CC(=O)Nc1ccc(Nc2ncnc(N3CCCc4cc(C)ccc43)n2)cc1 [Compound 760] | 1.07 to 6.41 | > 12 | > 12 | < 1.07 | 1.07 to 6.41 | 1.07 to 6.41 | 1.07 to 6.41 | > 12 | > 12 | 1.07 to 6.41 |  |
| NC(=O)Cc1ccc(Nc2ncnc(Nc3cc(-c4ccccc4)n[nH]3)n2)cc1 [Compound 573] | < 1.04 | 6.21 to 9.06 | 1.04 to 6.21 | 1.04 to 6.21 | 6.21 to 9.06 | < 1.04 | 1.04 to 6.21 | 6.21 to 9.06 | < 1.04 | 1.04 to 6.21 |  |
| CN(c1ccc(F)c(Cl)c1)c1ncnc(Nc2cccc(Br)c2)n1 [Compound 713] | > 11 | > 11 | > 11 | > 11 | > 11 | 0.979 to 5.87 | > 11 | > 11 | > 11 | > 11 |  |
| COC(=O)Cc1cccc(Nc2ncnc(-n3c(N)nc4ccccc43)n2)c1 [Compound 546] | 1.07 to 6.39 | 9.32 to 12 | 1.07 to 6.39 | 6.39 to 9.32 | 6.39 to 9.32 | < 1.07 | 6.39 to 9.32 | 9.32 to 12 | < 1.07 | 1.07 to 6.39 |  |
| c1ccc(Cn2ncc3cc(Nc4ncnc(Nc5ncccn5)n4)ccc32)cc1 [Compound 738] | > 11.4 | > 11.4 | 1.01 to 6.07 | 1.01 to 6.07 | 6.07 to 8.85 | > 11.4 | > 11.4 | > 11.4 | 1.01 to 6.07 | > 11.4 |  |
| CN(c1cccc(Cl)c1)c1ncnc(Nc2ccc(CC(=O)O)cc2)n1 [Compound 705] | > 12.2 | > 12.2 | > 12.2 | < 1.08 | 1.08 to 6.49 | 9.46 to 12.2 | > 12.2 | > 12.2 | > 12.2 | > 12.2 |  |
| COc1cc(Nc2ncnc(Nc3ccc4c(c3)CCC4)n2)cc(OC)c1OC [Compound 629] | < 1.02 | 6.1 to 8.9 | 1.02 to 6.1 | 1.02 to 6.1 | 1.02 to 6.1 | 1.02 to 6.1 | 6.1 to 8.9 | > 11.4 | < 1.02 | < 1.02 |  |
| COCCCNc1ncnc(N2CCCc3cc(C)ccc32)n1 [Compound 762] | > 14.4 | > 14.4 | > 14.4 | 11.2 to 14.4 | > 14.4 | > 14.4 | > 14.4 | > 14.4 | > 14.4 | > 14.4 |  |
| NC(=O)c1ccccc1Nc1ncnc(-n2c(N)nc3ccccc32)n1 [Compound 473] | 6.93 to 10.1 | 10.1 to 13 | > 13 | > 13 | 10.1 to 13 | 10.1 to 13 | 10.1 to 13 | > 13 | 6.93 to 10.1 |  | > 13 |

Other lines, results leading:

| IC50 (Lck) [µM] | IC50 (Zap-70) [µM] | IC50 (Itk) [µM] | IC50 (EGFR) [µM] | IC50 (ErbB2) [µM] | IC50 (Kdr) [µM] | IC50 (c-Met) [µM] | IC50 (AKT) [µM] | IC50 (IGFR-1) [µM] | IC50 (PDGFRB) [µM] | IC50 (Tek) [µM] | Structure (SMILES) |
| --- | --- | --- | --- | --- | --- | --- | --- | --- | --- | --- | --- |
| > 8.64 | > 8.64 | > 8.64 | > 8.64 | 0.768 to 4.61 | 4.61 to 6.72 | > 8.64 | > 8.64 | 6.72 to 8.64 | 0.768 to 4.61 |  | COc1cc(Nc2ncnc(-n3c(Nc4cccc5cccnc45)nc4ccccc43)n2)cc(OC)c1OC [Compound 588] |
| 1.08 to 6.45 | > 12.1 | > 12.1 | < 1.08 | < 1.08 | 1.08 to 6.45 | 1.08 to 6.45 | > 12.1 | 6.45 to 9.41 | 1.08 to 6.45 |  | COc1ccc(Nc2ncnc(N(C)c3cccc(Cl)c3)n2)cc1OC [Compound 621] |
| > 10.8 | > 10.8 | > 10.8 | 5.77 to 8.42 | > 10.8 | > 10.8 | > 10.8 | > 10.8 | > 10.8 | > 10.8 |  | COc1cc(CNc2ncnc(N(C)c3cccc(Cl)c3)n2)cc(OC)c1OC [Compound 747] |
| > 15 | > 15 | > 15 | > 15 | > 15 | > 15 | > 15 | > 15 | > 15 | > 15 |  | COc1ccc(Nc2ncnc(NCCC#N)n2)cc1OC [Compound 787] |
| > 12.6 | > 12.6 | > 12.6 | > 12.6 | > 12.6 | > 12.6 | > 12.6 | > 12.6 | > 12.6 | 1.12 to 6.7 |  | CCN1CCCC1CNc1ncnc(Nc2ccc(OC)c(OC)c2)n1 (stereo not shown) [Compound 781] |
| > 13.9 | > 13.9 | > 13.9 | > 13.9 | > 13.9 | > 13.9 | > 13.9 | > 13.9 | > 13.9 | > 13.9 |  | CN(c1cccc(Cl)c1)c1ncnc(NCCOCCO)n1 [Compound 746] |
| 0.963 to 5.78 | > 10.8 | > 10.8 | > 10.8 |  | > 10.8 | > 10.8 | > 10.8 | 0.963 to 5.78 | 5.78 to 8.42 |  | COc1ccc(Nc2ncnc(Nc3cccc(-c4ccnc(C)n4)c3)n2)cc1OC [Compound 789] |
| < 0.923 | > 10.4 | 0.923 to 5.54 | 0.923 to 5.54 | 0.923 to 5.54 | 0.923 to 5.54 | < 0.923 | > 10.4 | < 0.923 |  | > 10.4 | COc1cc(Nc2ncnc(Nc3cc(-c4cccc(C)c4)n[nH]3)n2)cc(OC)c1OC [Compound 1001] |
